According to patent publication US10308650B2, “Pesticidally active tetracyclic derivatives with sulfur containing substituents” (Syngenta Participations AG, priority 2014, dated 2019):
Like-named read-outs stand apart in the source and are kept apart here.

Experiments:
Type in all cases: in vivo
[1] = test system: Euschistus heros (Neotropical Brown Stink Bug); test: Activity against Euschistus heros; details: 120 h, read-out: effect in at least one of the two categories (mortality or growth inhibition); for percent effect (mortality or growth inhibition) at 200 ppm: application rate of 200 ppm, soybean leaves, N2 nymphs, 5 days after infestation
Experimental: Example B3: Activity Against Euschistus heros (Neotropical Brown Stink Bug)
Soybean leaves on agar in 24-well microtiter plates were sprayed with aqueous test solutions prepared from 10,000 ppm DMSO stock solutions. After drying the leaves were infested with N2 nymphs. The samples were assessed for mortality and growth inhibition in comparison to untreated samples 5 days after infestation.

[2] = test system: Myzus persicae (Green Peach Aphid); test: Activity against Myzus persicae: feeding/contact activity; details: foliar, 144 h
Experimental: Example B5: Activity Against Myzus persicae (Green Peach Aphid): Feeding/Contact Activity
Sunflower leaf discs were placed onto agar in a 24-well microtiter plate and sprayed with aqueous test solutions prepared from 10,000 ppm DMSO stock solutions. After drying, the leaf discs were infested with an aphid population of mixed ages. The samples were assessed for mortality 6 days after infestation.

[3] = test system: Myzus persicae (Green Peach Aphid); test: Activity against Myzus persicae: systemic activity; details: 144 h, test rate of 24 ppm, roots of infested pea seedlings in test solution, 6 days, read-out: mortality
Experimental: Example B6: Activity Against Myzus persicae (Green Peach Aphid). Systemic Activity
Roots of pea seedlings infested with an aphid population of mixed ages were placed directly into aqueous test solutions prepared from 10,000 DMSO stock solutions. The samples were assessed for mortality 6 days after placing seedlings into test solutions.

[4] = test system: Plutella xylostella (Diamond Back Moth); test: Activity against Plutella xylostella; details: 120 h, read-out: effect in at least one of the two categories (mortality or growth inhibition); for percent effect (mortality or growth inhibition) at 200 ppm: application rate of 200 ppm, artificial diet, L2 larvae, 5 days after infestation
Experimental: Example B8: Activity Against Plutella xylostella (Diamond Back Moth)
(§1) 24-well microtiter plates with artificial diet were treated with aqueous test solutions prepared from 10,000 ppm DMSO stock solutions by pipetting. After drying, the plates were infested with L2 larvae (10 to 15 per well). The samples were assessed for mortality and growth inhibition in comparison to untreated samples 5 days after infestation.

[5] = test system: Diabrotica balteata (Corn Root Worm); test: Activity against Diabrotica balteata; details: 96 h, read-out: effect in at least one of the two categories (mortality or growth inhibition); for percent effect (mortality or growth inhibition) at 200 ppm: application rate of 200 ppm, maize sprouts, L2 larvae, 4 days after infestation
Experimental: Example B2: Activity Against Diabrotica balteata (Corn Root Worm)
as §1, with “Maize sprouts placed onto an agar layer in 24-well” for “24-well”, “plates” for “plates with artificial diet”, “spraying.” for “pipetting.”, “(6” for “(10”, “10” for “15”, “4” for “5”

[6] = test system: Myzus persicae (Green Peach Aphid); test: Activity against Myzus persicae: intrinsic activity; details: 120 h
Description: Example B7: Activity Against Myzus persicae (Green Peach Aphid). Intrinsic Activity
Test compounds prepared from 10,000 ppm DMSO stock solutions were applied by pipette into 24-well microtiter plates and mixed with sucrose solution. The plates were closed with a stretched Parafilm. A plastic stencil with 24 holes was placed onto the plate and infested pea seedlings were placed directly on the Parafilm. The infested plate was closed with a gel blotting paper and another plastic stencil and then turned upside down. The samples were assessed for mortality 5 days after infestation.

[7] = test system: Spodoptera littoralis (Egyptian Cotton Leaf Worm); test: Activity against Spodoptera littoralis (cotton leaf discs, spray); details: foliar, 72 h, read-out: control (mortality, anti-feeding effect, growth inhibition)
Experimental: Example B9: Activity Against Spodoptera littoralis (Egyptian Cotton Leaf Worm)
Cotton leaf discs were placed onto agar in 24-well microtiter plates and sprayed with aqueous test solutions prepared from 10,000 ppm DMSO stock solutions. After drying the leaf discs were infested with five L1 larvae. The samples were assessed for mortality, anti-feeding effect, and growth inhibition in comparison to untreated samples 3 days after infestation. Control of Spodoptera littoralis by a test sample is given when at least one of the categories mortality, anti-feedant effect, and growth inhibition is higher than the untreated sample.

[8] = test system: Bemisia tabaci (Cotton White Fly); test: Activity against Bemisia tabaci: feeding/contact activity; details: foliar, 144 h, application rate of 200 ppm, cotton leaf discs, adult white flies, 6 days after incubation
Experimental: Example B1: Activity Against Bemisia tabaci (Cotton White Fly): Feeding/Contact Activity
Cotton leaf discs were placed on agar in 24-well microtiter plates and sprayed with aqueous test solutions prepared from 10,000 ppm DMSO stock solutions. After drying the leaf discs were infested with adult white flies. The samples were checked for mortality 6 days after incubation.

[9] = test system: Aedes aegypti (Yellow Fever Mosquito); test: Activity against Aedes aegypti; details: 200 ppm in ethanol, dry deposit in 12 well plates, adult females, after 48 h and/or 24 h
Experimental: Example B13: Activity Against Aedes aegypti (Yellow Fever Mosquito)
Test solutions, at an application rate of 200 ppm in ethanol, were applied to 12 well tissue culture plates. Once the deposits were dry, five, two to five day old adult female Aedes aegypti were added to each well, and sustained with a 10% sucrose solution in a cotton wool plug. Assessment of knockdown was made one hour after introduction, and mortality was assessed at 24 and 48 hours after introduction.

[10] = test system: Spodoptera littoralis (Egyptian Cotton Leaf Worm); test: Activity against Spodoptera littoralis (lettuce, uptake by the roots from agar); details: 144 h, test rate of 12.5 ppm, lettuce grown on treated agar, Spodoptera eggs, 6 days after infestation, read-out: effect in at least one of the three categories (mortality, anti-feeding, or growth inhibition)
Description: Example B10: Activity Against Spodoptera littoralis (Egyptian Cotton Leaf Worm)
Test compounds were applied by pipette from 10,000 ppm DMSO stock solutions into 24-well plates and mixed with agar. Lettuce seeds were placed onto the agar and the multi well plate was closed by another plate which contained also agar. After 7 days the compound was absorbed by the roots and the lettuce grew into the lid plate. The lettuce leaves were then cut off into the lid plate. Spodoptera eggs were pipetted through a plastic stencil onto a humid gel blotting paper and the lid plate was closed with it. The samples were assessed for mortality, anti-feedant effect and growth inhibition in comparison to untreated samples 6 days after infestation.

[11] = application rate of 200 ppm, sunflower leaf discs, aphid population of mixed ages, 6 days after infestation, read-out: mortality
[12] = test rate of 12 ppm, sucrose solution under Parafilm, 5 days after infestation, read-out: mortality
[13] = application rate of 200 ppm, cotton leaf discs, L1 larvae, 3 days after infestation

CCS(=O)(=O)c1cc2c(cc1-c1nc3cc(C(F)(F)F)ncc3n1C)ncn2C (single isomer, unassigned) [Compound A12, 2-(6-ethylsulfonyl-1-methyl-benzimidazol-5-yl)-3-methyl-6-(trifluoromethyl)imidazo[4,5-c]pyridine]
≥ 80%: percent effect (mortality or growth inhibition) at 200 ppm [1] | mortality at 200 ppm [2, 11] | mortality at 24 ppm [3] | percent effect (mortality or growth inhibition) at 200 ppm [4]

CCS(=O)(=O)c1cc2c(cc1-c1nc3cc(C(F)(F)F)ncc3n1C)nc(C)n2C (single isomer, unassigned) [Compound A15, 2-(6-ethylsulfonyl-1,2-dimethyl-benzimidazol-5-yl)-3-methyl-6-(trifluoromethyl)imidazo[4,5-c]pyridine]
≥ 80%: percent effect (mortality or growth inhibition) at 200 ppm [1] | mortality at 200 ppm [2, 11] | mortality at 24 ppm [3] | percent effect (mortality or growth inhibition) at 200 ppm [4]

CCS(=O)(=O)c1cc2ccccc2cc1-c1nc2cc(C(F)(F)F)cnc2n1C [Compound A3, 2-(3-ethylsulfonyl-2-naphthyl)-3-methyl-6-(trifluoromethyl)imidazo[4,5-b]pyridine]
≥ 80%: percent effect (mortality or growth inhibition) at 200 ppm [5] | percent effect (mortality or growth inhibition) at 200 ppm [1] | mortality at 200 ppm [2, 11] | mortality at 12 ppm [6, 12] | percent effect (mortality or growth inhibition) at 200 ppm [4] | mortality at 200 ppm [7, 13]

CCS(=O)(=O)c1cc2nc(C(F)(F)F)n(C)c2cc1-c1nc2cc(C(F)(F)F)ncc2n1C [Compound A8, 2-[6-ethylsulfonyl-3-methyl-2-(trifluoromethyl)benzimidazol-5-yl]-3-methyl-6-(trifluoromethyl)imidazo[4,5-c]pyridine]
≥ 80%: mortality at 200 ppm [8] | percent effect (mortality or growth inhibition) at 200 ppm [5] | percent effect (mortality or growth inhibition) at 200 ppm [1] | mortality at 200 ppm [2, 11] | mortality at 24 ppm [3] | percent effect (mortality or growth inhibition) at 200 ppm [4] | pest or weed control at 200 ppm [9]

CCS(=O)(=O)c1cc2nc(C)sc2cc1-c1nc2cc(C(F)(F)F)ncc2n1C [Compound A19, 5-ethylsulfonyl-2-methyl-6-[3-methyl-6-(trifluoromethyl)imidazo[4,5-c]pyridin-2-yl]-1,3-benzothiazole]
≥ 80%: percent effect (mortality or growth inhibition) at 200 ppm [5] | percent effect (mortality or growth inhibition) at 200 ppm [1] | mortality at 200 ppm [2, 11] | mortality at 24 ppm [3] | mortality at 200 ppm [7, 13] | percent effect (mortality, anti-feeding or growth inhibition) at 12.5 ppm [10]

CCSc1cc2ccccc2nc1-c1nc2cc(C(F)(F)F)ncc2n1C [Compound A21, 3-ethylsulfanyl-2-[3-methyl-6-(trifluoromethyl)imidazo[4,5-c]pyridin-2-yl]quinolone]
≥ 80%: percent control (mortality or growth inhibition) at 200 ppm [5] | percent control (mortality or growth inhibition) at 200 ppm ([1]; in Glycine max) | mortality at 200 ppm [2] | mortality at 12 ppm [6] | percent control (mortality or growth inhibition) at 200 ppm [4] | mortality at 200 ppm [7]

CCSc1cc2ccccc2cc1-c1nc2cc(C(F)(F)F)ncc2n1C [Compound A23, 2-(3-ethylsulfanyl-2-naphthyl)-3-methyl-6-(trifluoromethyl)imidazo[4,5-c]pyridine]
≥ 80%: percent effect (mortality or growth inhibition) at 200 ppm [5] | percent effect (mortality or growth inhibition) at 200 ppm [1] | mortality at 200 ppm [2, 11] | mortality at 12 ppm [6, 12] | percent effect (mortality or growth inhibition) at 200 ppm [4]

CCS(=O)(=O)c1cc2c[n+]([O-])ccc2cc1-c1nc2cc(C(F)(F)F)ncc2n1C [Compound A27, 7-ethylsulfonyl-6-[3-methyl-6-(trifluoromethyl)imidazo[4,5-c]pyridin-2-yl]-2-oxido-isoquinolin-2-ium]
≥ 80%: mortality at 200 ppm [8] | percent effect (mortality or growth inhibition) at 200 ppm [1] | mortality at 200 ppm [2, 11] | mortality at 24 ppm [3]

CCS(=O)(=O)c1cc2c(cc1-c1nc3cc(C(F)(F)F)ncc3n1C)nnn2C [Compound A36, 6-ethylsulfonyl-1-methyl-5-[3-methyl-6-(trifluoromethyl)imidazo[4,5-c]pyridin-2-yl]benzotriazole]
≥ 80%: percent effect (mortality or growth inhibition) at 200 ppm [5] | percent effect (mortality or growth inhibition) at 200 ppm [1] | mortality at 200 ppm [2, 11] | mortality at 24 ppm [3] | percent effect (mortality or growth inhibition) at 200 ppm [4]

CCSc1cc2c(cc1-c1nc3cc(C(F)(F)F)ncc3n1C)nc(C(F)(F)F)n2C [Compound A39, 2-[6-ethylsulfanyl-1-methyl-2-(trifluoromethyl)benzimidazol-5-yl]-3-methyl-6-(trifluoromethyl)imidazo[4,5-c]pyridine]
≥ 80%: percent effect (mortality or growth inhibition) at 200 ppm [5] | percent effect (mortality or growth inhibition) at 200 ppm [4] | pest or weed control at 200 ppm [9]

CCS(=O)(=O)c1cc2cc(C#N)ccc2nc1-c1nc2cc(C(F)(F)F)ncc2n1C [Compound A50, 3-ethylsulfonyl-2-[3-methyl-6-(trifluoromethyl)imidazo[4,5-c]pyridin-2-yl]quinoline-6-carbonitrile]
≥ 80%: mortality at 200 ppm [8] | percent effect (mortality or growth inhibition) at 200 ppm [5] | percent effect (mortality or growth inhibition) at 200 ppm [1] | mortality at 200 ppm [2, 11] | percent effect (mortality or growth inhibition) at 200 ppm [4] | mortality at 200 ppm [7, 13] | percent effect (mortality, anti-feeding or growth inhibition) at 12.5 ppm [10]

CCS(=O)(=O)c1cc2cc(C(F)(F)C(F)(F)F)ccc2nc1-c1nc2cc(C(F)(F)F)ncc2n1C [Compound A52, 3-ethylsulfonyl-2-[3-methyl-6-(trifluoromethyl)imidazo[4,5-c]pyridin-2-yl]-6-(1,1,2,2,2-pentafluoroethyl)quinoline]
≥ 80%: percent effect (mortality or growth inhibition) at 200 ppm [5] | percent effect (mortality or growth inhibition) at 200 ppm [1] | percent effect (mortality or growth inhibition) at 200 ppm [4] | mortality at 200 ppm [7, 13] | pest or weed control at 200 ppm [9]
